These results are taken from patent publication US20170015640A1, “USE OF ARYLALKANOLAMINES AS SIGMA-1 RECEPTOR ANTAGONISTS” (Università degli studi di Pavia, priority 2014, published 2017).

Usually Ki stands for a dissociation constant, usually derived from enzyme kinetics or from competition with a known ligand.

The nature of data set [1]: In vitro metabolic stability in human plasma. The class given is in vitro ADME. Conditions: 37° C., FIG. 7(A). The procedure: (§1) The metabolic stability studies were performed using biological matrices (plasma, blood and S9 fraction of liver) obtained from various animal species.
(§2) The biological matrices and the analysis method were arranged according to the process described by Rossi D. et al. in “Identification of RC-33 as a potent and selective al receptor agonist potentiating NGF-induced neurite outgrowth in PC12 cells. Part 2: g -scale synthesis, physicochemical characterization and in vitro metabolic stability” (Bioorg. Med. Chem. 2013, 21, 2577-2586).
(§3) For each biological matrix, suitable solutions were prepared to perform the test, as described below.
(§4) 10 μL of a stock solution of compound 1 in dimethyl sulfoxide (DMSO) were incubated with each matrix (total reaction volume 1 mL) in a mixer thermostatically maintained at 37° C. for […]. 50 μL aliquots were taken from each reaction mixture and sampled in duplicate at 5, 10, 15, 30, 60, 120 and 240 minutes to determine the reaction kinetics. […] The supernatant was analysed by means of an Acquity Waters ultra-fast liquid chromatography system, interfaced with a photodiode array detector (UPLC/UV/PAD) to obtain the concentration of the test compound at each of the said times. […]
(§5) The results, obtained from three independent experiments and expressed as the mean value ±standard deviation (SD), are given in FIGS. 8 and 9.

The nature of data set [2]: In vitro metabolic stability in rat plasma. The class given is in vitro ADME. The note with it: 37° C., FIG. 7(A). Here is the method:
as §1, §2, §3, §4, §5

The nature of data set [3]: In vitro metabolic stability, overall conclusion over biological matrices. It counts as in vitro ADME, various animal species. The procedure: as §1, §2, §3, §4, §5
Data set [4] is described as follows: In vitro metabolic stability in mouse blood. The class given is in vitro ADME. The note with it: 37° C., FIG. 7(B). The procedure: as §1, §2, §3, §4, §5
Data set [5] in a line: In vitro metabolic stability in S9 fraction of rat liver. The class given is in vitro ADME. Here is the method: as §1, §2, §3, §4, §5
Data set [6] in a line: In vitro metabolic stability in dog plasma. It counts as in vitro ADME. The note with it: 37° C., FIG. 7(A). Here is the method: as §1, §2, §3, §4, §5
Data set [7] can be described thus: In vitro metabolic stability in rat blood. The note with it: 37° C., FIG. 7(B). It counts as in vitro ADME. The procedure:
as §1, §2, §3, §4, §5

A short description of data set [8]: In vitro metabolic stability in S9 fraction of human liver. It counts as in vitro ADME. Here is the method:
as §1, §2, §3, §4, §5

The next data set deals with σ-1 receptor (Cavia porcellus, UniProt Q60492). The data set is described as follows: biochemical.
Sequence of σ-1 receptor (Q60492 whole entry): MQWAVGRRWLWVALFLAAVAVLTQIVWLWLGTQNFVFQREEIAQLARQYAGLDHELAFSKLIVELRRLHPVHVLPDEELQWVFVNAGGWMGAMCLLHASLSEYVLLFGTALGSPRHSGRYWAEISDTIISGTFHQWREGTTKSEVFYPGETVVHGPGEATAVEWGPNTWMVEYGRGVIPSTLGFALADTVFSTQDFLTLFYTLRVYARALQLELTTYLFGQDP
For a further data set, the target named is T1, σ-1 receptors (Rattus norvegicus, UniProt Q9R0C9).
T1 construct: performed on rat pheochromocytoma cells (PC12 cells); endogenous in cells; host or cells: PC12 rat pheochromocytoma cells
T1 sequence (Q9R0C9 whole entry): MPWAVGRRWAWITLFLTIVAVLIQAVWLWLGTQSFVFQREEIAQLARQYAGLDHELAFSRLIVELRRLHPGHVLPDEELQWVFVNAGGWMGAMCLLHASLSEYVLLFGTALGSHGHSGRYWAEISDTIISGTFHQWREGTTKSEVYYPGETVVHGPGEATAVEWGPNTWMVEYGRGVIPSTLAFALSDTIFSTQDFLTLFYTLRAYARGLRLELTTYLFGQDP
The data set is described as follows: Growth of NGF-induced neurite outgrowths in PC12 cells (agonist/antagonist profile). It counts as cell-based. Conditions: FIG. 6. Here is the method: Evaluation of the growth of neurite outgrowths induced by neuronal growth factor (NGF).
Evaluation of the growth of NGF-induced neurite outgrowths was performed on rat pheochromocytoma cells (PC12 cells), conventionally used as a model of neuronal study.
This method constitutes a reliable model for evaluating the agonist/antagonist profile of low molecular weight compounds on the o receptors. In particular, it has been reported that σ-1 agonists potentiate the growth of NGF-induced neurite outgrowths in PC12 cells. In contrast, σ-1 antagonists oppose the action of the agonists, leading to a reduction in NGF-induced growth (Rossi D. et al., “identification of a potent and selective σ1 receptor agonist potentiating NGF-induced neurite outgrowth in PC12 cells”, Bioorg. Med. Chem. 2011, 19, 6210-6224).
The cell culturing PC12 cells, the method for quantifying the growth of neurite outgrowths and the cytotoxicity test were performed as described by Rossi D. et al. in Bioorg. Med. Chem. 2011 cited above.
Statistical analysis of the data obtained was performed using the two-way analysis of variants (ANOVA) method and the Tukey post-hoc test. Values of p<0.05 were considered as being statistically significant.
The results, expressed as the mean value ±standard error of mean (SEM), represent the percentage of cells showing neurite growth. […]

Another data set relates to male ICR mice. The data set is described as follows: Formalin test (animal model of inflammatory pain). It counts as in vivo, mouse. The note with it: intraperitoneal, even at a dose of 1 mg/kg, 30 min before 2% formalin, FIG. 9. Here is the method: The formalin test is an animal model of inflammatory pain widely used and known in the literature.
32 male ICR mice weighing 25 grams were divided into 4 groups of 8 mice each.
The vehicle alone, which consisted of a mixture of dimethyl sulfoxide (DMSO), castor oil Cremophor® EL (BASF) and distilled water, in a 10/10/80 ratio, was administered to the control group (CTR).
Compound 1 was dissolved in the same vehicle and administered at the following doses: • group 1, 1 mg/kg; • group 2, 10 mg/kg; and • group 3, 20 mg/kg.
All the administrations took place by intraperitoneal injection. Thirty minutes after the administration, all the mice were subjected to an injection with 20 uL of a 2% formalin solution subcutaneously, into a paw.
The injection of formalin induces a two-phase nociceptive response, in other words, within the first 5-10 minutes of the administration of formalin, the first nociceptive phase is manifested, followed by a phase of quiescence and by the second nociceptive phase which is manifested 20-30 minutes after the administration of formalin.
The nociceptive response was recorded by evaluating the time that each mouse spent licking or biting its paw which received the injection. […]

SMILES strings stand for the structures.

`OCC(CCN1CCCCC1)c1ccc(-c2ccccc2)cc1` (centres unmarked) [Compound 1, 4-(N-piperidinyl)-2-(4-diphenyl)butanol]: in data set [1], the “metabolization in human plasma” value is “insignificant”. Besides, the “metabolization in rat plasma” value in data set [2] is reported as “insignificant”. Moreover, the “in vitro metabolic stability” value in [3] is reported as “high”. The “metabolization in mouse blood” value in [4] is “insignificant”. In addition, the “metabolization in S9 fraction of rat liver” value in [5] (absence of NADPH, FIG. 8(A)) is given as “insignificant”; in [5] (presence of NADPH, FIG. 8(B)) it was “substantial metabolization”. For the same compound, the “metabolization in dog plasma” value in [6] was “insignificant”. The “metabolization in rat blood” value in [7] is recorded as “insignificant”. Besides, the “metabolization in S9 fraction of human liver” value in data set [8] (absence of NADPH, FIG. 8(A)) was “insignificant”; in data set [8] (presence of NADPH, FIG. 8(B)), “substantial metabolization”. Also, the Ki on σ-1 receptor came out at 6.2 nM. For the same compound, the “effect on agonist-potentiated growth of NGF-induced neurite outgrowths” value at σ-1 receptors (σ-1 agonist plus 2.5 μM of compound (group A)) is listed as “appreciably opposed the effect of the agonist compound”. In the data set with male ICR mice, the “reduction of inflammatory pain (time spent licking or biting the paw)” value is listed as “effective in reducing inflammatory pain”.

Regarding `Cl.O=C(OCCN1CCOCC1)C1(c2ccccc2)CCCCC1` [PRE, 2-(4-morpholinoethyl)-1-phenylcyclohexanecarboxylate hydrochloride, reference compound], on σ-1 receptors (reference group (PRE) relative to control group (NGF)), the “percentage of cells with growth of neurite outgrowths” value was “increased significantly”.
